Assay results reported in ChEMBL document CHEMBL1201862, “PubChem BioAssay data set” (2004).
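The compound was tested at five concentrations on cells cultured in 96-well plates, with a 48-hour exposure period. The concentration for 50% growth inhibition is given as GI50.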 Calls of active or inactive are those of the source. Rule as the data show it: active = GI50 up to about 1.1 µM and inactive = higher.

Tests used:
Assay in all cases: NCI-60 cell line screen, 48 h
EKVX = system: EKVX
SK-OV-3 = system: SK-OV-3
SN12C = system: SN12C
SF-295 = system: SF-295
UACC-62 = system: UACC-62
U-251 = system: U-251
OVCAR-4 = system: OVCAR-4
NCI-H23 = system: NCI-H23
A498 = system: A498
K562 = system: K562
ACHN = system: ACHN
MDA-MB-231 = system: MDA-MB-231
PC-3 = system: PC-3
TK-10 = system: TK-10
LOX IMVI = system: LOX IMVI
M14 = system: M14
SF-539 = system: SF-539
HCT-116 = system: HCT-116
SK-MEL-5 = system: SK-MEL-5
Hs-578T = system: Hs-578T

Measured: GI50

COC(=O)CNC(=O)CSc1nnc(COc2ccc(Cl)cc2)n1-c1ccccc1
inactive: EKVX > 100 µM | SK-OV-3 > 100 µM | SN12C 19.8 µM | SF-295 > 100 µM | UACC-62 39.5 µM | U-251 38.6 µM | OVCAR-4 > 100 µM | NCI-H23 40.3 µM | A498 > 100 µM | K562 > 100 µM | ACHN 24 µM | MDA-MB-231 20.5 µM | PC-3 24 µM | TK-10 22 µM | LOX IMVI 31.3 µM | M14 37.3 µM | SF-539 > 100 µM | HCT-116 94.4 µM

O/N=C1\SC(=N\O)/C(=N/O)S\C1=N/O
inactive: EKVX > 100 µM | SK-OV-3 > 100 µM | SN12C > 100 µM | SF-295 > 100 µM | UACC-62 94.8 µM | U-251 > 100 µM | OVCAR-4 > 100 µM | SK-MEL-5 38.7 µM | NCI-H23 76.6 µM | A498 > 100 µM | K562 51.2 µM | ACHN > 100 µM | MDA-MB-231 > 100 µM | PC-3 > 100 µM | LOX IMVI > 100 µM | M14 > 100 µM | SF-539 > 100 µM | HCT-116 68.4 µM

CCN1C(=O)C(=C/C=C/c2ccc(N(CC)CC)cc2)C(=O)N(CC)C1=S
inactive: Hs-578T > 100 µM | EKVX > 100 µM | SK-OV-3 > 100 µM | SN12C > 100 µM | SF-295 > 100 µM | UACC-62 87.5 µM | U-251 > 100 µM | OVCAR-4 > 100 µM | SK-MEL-5 > 100 µM | NCI-H23 > 100 µM | K562 83.9 µM | ACHN > 100 µM | MDA-MB-231 > 100 µM | PC-3 72.4 µM | TK-10 > 100 µM | LOX IMVI > 100 µM | M14 > 100 µM | SF-539 72.1 µM | HCT-116 > 100 µM

CC(=O)NCCCCNCCCNC(C)=O
inactive: Hs-578T > 100 µM | EKVX > 100 µM | SK-OV-3 > 100 µM | SN12C > 100 µM | SF-295 > 100 µM | UACC-62 > 100 µM | U-251 > 100 µM | OVCAR-4 > 100 µM | SK-MEL-5 > 100 µM | NCI-H23 > 100 µM | A498 > 100 µM | K562 > 100 µM | ACHN > 100 µM | MDA-MB-231 > 100 µM | TK-10 > 100 µM | LOX IMVI > 100 µM | M14 > 100 µM | SF-539 > 100 µM | HCT-116 > 100 µM

CC(=O)Nc1ccc(CNc2cc(=O)[nH]c(=O)[nH]2)cc1
inactive: Hs-578T > 100 µM | EKVX > 100 µM | SK-OV-3 > 100 µM | SN12C > 100 µM | SF-295 > 100 µM | UACC-62 > 100 µM | U-251 > 100 µM | OVCAR-4 > 100 µM | SK-MEL-5 > 100 µM | NCI-H23 > 100 µM | K562 > 100 µM | ACHN > 100 µM | MDA-MB-231 > 100 µM | PC-3 > 100 µM | TK-10 > 100 µM | LOX IMVI > 100 µM | M14 > 100 µM | SF-539 > 100 µM | HCT-116 > 100 µM

CC(=O)Nc1ccccc1NC1CC(C)N(c2ccccc2)N1C(C)=O (stereo not given)
inactive: EKVX > 10 µM | SK-OV-3 > 10 µM | SN12C > 10 µM | SF-295 > 10 µM | UACC-62 > 10 µM | OVCAR-4 > 10 µM | SK-MEL-5 > 10 µM | NCI-H23 > 10 µM | K562 > 10 µM | MDA-MB-231 > 10 µM | PC-3 > 10 µM | TK-10 > 10 µM | M14 > 10 µM

COC(=O)[C@H](Cc1ccccc1)NP(=O)(OCCC#N)OCC1OC(n2cc(C)c(=O)[nH]c2=O)CC1N=[N+]=[N-] (stereo not given in full)
inactive: Hs-578T > 100 µM | EKVX > 100 µM | SK-OV-3 > 100 µM | SN12C > 100 µM | SF-295 > 100 µM | UACC-62 > 100 µM | U-251 > 100 µM | OVCAR-4 > 100 µM | SK-MEL-5 > 100 µM | NCI-H23 > 100 µM | K562 > 100 µM | ACHN > 100 µM | MDA-MB-231 > 100 µM | PC-3 > 100 µM | TK-10 > 100 µM | LOX IMVI > 100 µM | M14 > 100 µM | HCT-116 > 100 µM

Cc1ccc(NC(=O)C(=O)CC(=O)c2sc(Nc3c(C)cccc3C)nc2C)cc1C
inactive: Hs-578T > 100 µM | EKVX > 100 µM | SK-OV-3 > 100 µM | SN12C > 100 µM | SF-295 > 100 µM | UACC-62 > 100 µM | U-251 > 100 µM | OVCAR-4 > 100 µM | SK-MEL-5 > 100 µM | NCI-H23 > 100 µM | K562 > 100 µM | ACHN > 100 µM | MDA-MB-231 > 100 µM | PC-3 > 100 µM | TK-10 > 100 µM | LOX IMVI > 100 µM | M14 > 100 µM | SF-539 > 100 µM | HCT-116 > 100 µM

COc1c(CC=C(C)C)c(O)c(C(CC(C)C)c2c(O)c(C(C)=O)c(O)c3c2OC(C(C)(C)O)C3)c(O)c1C(C)=O (stereo not given) [ACROFOLIONE A]
inactive: Hs-578T 7.74 µM | EKVX 4.51 µM | SN12C 3.84 µM | UACC-62 5.26 µM | OVCAR-4 5.68 µM | SK-MEL-5 3.41 µM | NCI-H23 3.75 µM | A498 3.83 µM | K562 2.13 µM | ACHN 4.31 µM | LOX IMVI 4.38 µM | M14 5.56 µM | SF-539 4.93 µM | HCT-116 3.68 µM

Clc1cc2ncn(C3CCCO3)c2cc1Cl (stereo not given)
inactive: Hs-578T 48.8 µM | EKVX 27.5 µM | SK-OV-3 > 100 µM | SN12C > 100 µM | SF-295 > 100 µM | UACC-62 40.1 µM | U-251 69.7 µM | OVCAR-4 > 100 µM | SK-MEL-5 43.3 µM | NCI-H23 > 100 µM | K562 96.2 µM | ACHN 98.9 µM | MDA-MB-231 > 100 µM | PC-3 48.2 µM | TK-10 96.2 µM | LOX IMVI 54.2 µM | M14 > 100 µM | SF-539 > 100 µM | HCT-116 78.5 µM

O=c1c(Sc2c(SCSc3cnc4ccccc4c3Sc3c[nH]c4ccccc4c3=O)cnc3ccccc23)c[nH]c2ccccc12
inactive: Hs-578T 62.8 µM | EKVX > 100 µM | SN12C > 100 µM | SF-295 > 100 µM | UACC-62 43.3 µM | U-251 25.5 µM | OVCAR-4 96.6 µM | SK-MEL-5 39.6 µM | NCI-H23 > 100 µM | ACHN > 100 µM | MDA-MB-231 34.9 µM | PC-3 > 10 µM | TK-10 > 100 µM | LOX IMVI > 100 µM | M14 > 100 µM | SF-539 > 100 µM | HCT-116 > 100 µM

COc1cc(C2c3cccc4cccc(c34)C3CCC(=O)N32)cc(O)c1O (stereo not given)
inactive: EKVX 26.7 µM | SK-OV-3 > 50 µM | SN12C 41 µM | SF-295 39.9 µM | UACC-62 25.6 µM | U-251 19 µM | OVCAR-4 12.7 µM | NCI-H23 27.1 µM | A498 > 50 µM | K562 10.8 µM | ACHN > 50 µM | PC-3 34.4 µM | M14 43.7 µM | SF-539 20.9 µM | HCT-116 20.7 µM

CN1CC2CC(C1)c1cccc(=O)n1C2 (stereo not given)
inactive: Hs-578T > 100 µM | EKVX > 100 µM | SK-OV-3 > 100 µM | SN12C > 100 µM | SF-295 > 100 µM | UACC-62 > 100 µM | U-251 > 100 µM | OVCAR-4 > 100 µM | SK-MEL-5 > 100 µM | NCI-H23 > 100 µM | ACHN > 100 µM | MDA-MB-231 > 100 µM | PC-3 > 100 µM | TK-10 > 100 µM | LOX IMVI > 100 µM | M14 > 100 µM | HCT-116 > 100 µM

CCOc1ccccc1N1CSc2nnc(-c3ccccc3)n2C1
inactive: SK-OV-3 > 100 µM | SN12C > 100 µM | SF-295 > 100 µM | UACC-62 > 100 µM | U-251 > 100 µM | OVCAR-4 > 100 µM | SK-MEL-5 > 100 µM | NCI-H23 > 100 µM | A498 > 100 µM | K562 > 100 µM | ACHN > 100 µM | MDA-MB-231 > 100 µM | PC-3 > 100 µM | TK-10 > 100 µM | M14 > 100 µM | SF-539 > 100 µM | HCT-116 53.8 µM

CN(C(=O)CC(=O)CP(=O)(c1ccccc1)c1ccccc1)c1ccccc1
inactive: Hs-578T > 100 µM | EKVX > 100 µM | SK-OV-3 > 100 µM | SN12C > 100 µM | SF-295 > 100 µM | UACC-62 > 100 µM | U-251 > 100 µM | OVCAR-4 > 100 µM | SK-MEL-5 > 100 µM | NCI-H23 > 100 µM | K562 > 100 µM | ACHN > 100 µM | MDA-MB-231 > 100 µM | PC-3 > 100 µM | TK-10 > 100 µM | M14 > 100 µM | SF-539 > 100 µM | HCT-116 > 100 µM
